Publication PMC3639963, “A New Class of Small Molecule Inhibitor of BMP Signaling” (PLoS ONE, 2013)

How the values were obtained:
Test in all cases: Nanosyn kinase profiling
Type in all cases: biochemical
Conditions in all cases: read-out: Percentage inhibition; for inhibition at 0.1 µM: 0.1 µM inhibitor; for inhibition at 1 µM: 1 µM inhibitor
[1] = molecular target: T1, JAK3 (Homo sapiens, UniProt P52333)
T1 construct: purchased Nanosyn (enzymatic panel); SGC in-house recombinant human kinases (DSF panel); Invitrogen (ALK1-6)
T1 sequence (P52333 1-1124): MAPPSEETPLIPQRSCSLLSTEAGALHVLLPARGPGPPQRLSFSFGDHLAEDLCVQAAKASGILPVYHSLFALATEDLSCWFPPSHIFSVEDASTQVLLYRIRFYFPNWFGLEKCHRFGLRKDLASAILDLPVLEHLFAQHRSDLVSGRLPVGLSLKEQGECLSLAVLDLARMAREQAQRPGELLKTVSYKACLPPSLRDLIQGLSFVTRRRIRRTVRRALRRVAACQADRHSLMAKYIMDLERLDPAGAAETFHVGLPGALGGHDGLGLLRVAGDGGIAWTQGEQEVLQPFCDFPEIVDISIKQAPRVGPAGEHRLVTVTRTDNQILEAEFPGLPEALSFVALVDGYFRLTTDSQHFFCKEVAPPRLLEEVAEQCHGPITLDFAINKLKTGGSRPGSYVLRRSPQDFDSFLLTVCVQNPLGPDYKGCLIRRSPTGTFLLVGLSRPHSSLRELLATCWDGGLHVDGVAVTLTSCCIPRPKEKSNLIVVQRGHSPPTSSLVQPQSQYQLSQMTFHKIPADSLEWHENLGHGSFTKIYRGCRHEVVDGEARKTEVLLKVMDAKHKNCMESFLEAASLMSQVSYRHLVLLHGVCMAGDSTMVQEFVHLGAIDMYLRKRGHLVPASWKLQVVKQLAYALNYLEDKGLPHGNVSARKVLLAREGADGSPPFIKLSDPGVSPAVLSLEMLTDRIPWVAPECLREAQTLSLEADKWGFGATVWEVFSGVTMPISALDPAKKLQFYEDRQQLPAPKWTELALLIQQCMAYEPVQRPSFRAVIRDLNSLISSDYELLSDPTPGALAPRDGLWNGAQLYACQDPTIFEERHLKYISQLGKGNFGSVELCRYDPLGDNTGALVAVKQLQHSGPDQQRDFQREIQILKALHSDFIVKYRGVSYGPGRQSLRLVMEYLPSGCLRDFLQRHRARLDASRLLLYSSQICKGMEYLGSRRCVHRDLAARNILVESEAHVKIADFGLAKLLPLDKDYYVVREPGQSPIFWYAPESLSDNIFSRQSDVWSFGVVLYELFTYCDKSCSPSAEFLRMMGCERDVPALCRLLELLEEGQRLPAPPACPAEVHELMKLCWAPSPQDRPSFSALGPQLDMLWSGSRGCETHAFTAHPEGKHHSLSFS
In short: (§1)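 Percent inhibition of each kinase was measured with the inhibitor at 0.1 µM and at 1 µM, as part of a 200-kinase human selectivity panel.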

[2] = molecular target: T2, PRKD3 (Homo sapiens, UniProt O94806)
T2 construct: purchased Nanosyn (enzymatic panel); SGC in-house recombinant human kinases (DSF panel); Invitrogen (ALK1-6)
T2 sequence (O94806 1-890): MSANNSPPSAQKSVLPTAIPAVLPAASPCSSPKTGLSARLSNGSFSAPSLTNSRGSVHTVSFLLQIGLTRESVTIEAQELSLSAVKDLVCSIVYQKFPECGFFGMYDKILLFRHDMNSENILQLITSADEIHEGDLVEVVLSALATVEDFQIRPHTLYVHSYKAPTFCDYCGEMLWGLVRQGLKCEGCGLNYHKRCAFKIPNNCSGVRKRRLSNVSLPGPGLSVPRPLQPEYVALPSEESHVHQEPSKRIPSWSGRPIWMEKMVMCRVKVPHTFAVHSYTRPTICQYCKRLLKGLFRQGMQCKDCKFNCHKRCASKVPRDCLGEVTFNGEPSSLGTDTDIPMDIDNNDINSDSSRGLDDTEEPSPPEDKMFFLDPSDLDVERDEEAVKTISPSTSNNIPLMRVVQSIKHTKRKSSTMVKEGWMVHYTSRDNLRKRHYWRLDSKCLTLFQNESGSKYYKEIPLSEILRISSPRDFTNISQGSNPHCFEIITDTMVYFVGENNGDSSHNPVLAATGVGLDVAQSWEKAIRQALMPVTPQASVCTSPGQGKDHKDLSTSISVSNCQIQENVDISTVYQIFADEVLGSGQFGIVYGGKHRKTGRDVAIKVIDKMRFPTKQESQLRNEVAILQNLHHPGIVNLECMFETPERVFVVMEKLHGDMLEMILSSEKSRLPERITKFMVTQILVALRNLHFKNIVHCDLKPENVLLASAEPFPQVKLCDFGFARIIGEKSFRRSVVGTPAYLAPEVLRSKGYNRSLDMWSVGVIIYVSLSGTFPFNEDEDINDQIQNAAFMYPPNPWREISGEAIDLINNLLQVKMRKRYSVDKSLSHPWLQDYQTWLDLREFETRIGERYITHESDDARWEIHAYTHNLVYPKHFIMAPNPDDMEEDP
In short: as §1

[3] = molecular target: T3, PTK5 (Homo sapiens, UniProt P42685)
T3 construct: purchased Nanosyn (enzymatic panel); SGC in-house recombinant human kinases (DSF panel); Invitrogen (ALK1-6)
T3 sequence (P42685 whole entry): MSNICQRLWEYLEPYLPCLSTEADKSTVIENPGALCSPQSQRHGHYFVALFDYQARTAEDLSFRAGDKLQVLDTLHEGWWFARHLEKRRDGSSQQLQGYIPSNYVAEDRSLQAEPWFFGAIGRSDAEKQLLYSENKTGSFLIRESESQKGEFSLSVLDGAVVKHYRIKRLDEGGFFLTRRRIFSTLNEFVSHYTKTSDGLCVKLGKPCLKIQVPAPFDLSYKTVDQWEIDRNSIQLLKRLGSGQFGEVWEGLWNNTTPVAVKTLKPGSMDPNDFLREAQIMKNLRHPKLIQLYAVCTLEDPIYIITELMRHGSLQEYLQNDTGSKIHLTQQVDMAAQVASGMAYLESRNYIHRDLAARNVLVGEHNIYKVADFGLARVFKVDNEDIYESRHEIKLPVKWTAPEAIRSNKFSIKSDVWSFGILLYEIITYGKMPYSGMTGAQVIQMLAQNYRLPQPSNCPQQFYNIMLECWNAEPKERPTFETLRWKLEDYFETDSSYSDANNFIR
In short: as §1

[4] = molecular target: T4, TSSK2 (Homo sapiens, UniProt Q96PF2)
T4 construct: purchased Nanosyn (enzymatic panel); SGC in-house recombinant human kinases (DSF panel); Invitrogen (ALK1-6)
T4 sequence (Q96PF2 1-358): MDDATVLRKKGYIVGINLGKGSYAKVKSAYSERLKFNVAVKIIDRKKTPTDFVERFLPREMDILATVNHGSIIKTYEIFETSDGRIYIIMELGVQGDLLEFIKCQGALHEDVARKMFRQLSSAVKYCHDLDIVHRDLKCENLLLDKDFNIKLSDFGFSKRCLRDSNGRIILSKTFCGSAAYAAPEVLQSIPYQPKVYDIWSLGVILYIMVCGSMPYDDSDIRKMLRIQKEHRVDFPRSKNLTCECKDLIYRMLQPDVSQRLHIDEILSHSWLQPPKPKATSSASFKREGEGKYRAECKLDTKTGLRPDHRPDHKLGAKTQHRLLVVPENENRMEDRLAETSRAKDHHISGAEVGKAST
In short: as §1

Row | Structure (SMILES) | inhibition at 0.1 µM [1] | inhibition at 1 µM [1] | inhibition at 0.1 µM [2] | inhibition at 1 µM [2] | inhibition at 0.1 µM [3] | inhibition at 1 µM [3] | inhibition at 0.1 µM [4] | inhibition at 1 µM [4]
1 | COc1cc(-c2cc(-c3cccc(O)c3)cnc2N)cc(OC)c1OC [K02288, 3-[6-amino-5-(3,4,5-trimethoxy-phenyl)-pyridin-3-yl]-phenol] | 5.6% | 2.3% | -1% | 3.2% | 2.2% | 22% | -1% | -3%
2 | c1ccc2c(-c3cnn4cc(-c5ccc(N6CCNCC6)cc5)cnc34)ccnc2c1 [LDN-193189] | 0% | 0.1% | 3.2% | 13% | 4.1% | 14% | 0% | 0.5%
